Active and inactive are the calls of the source.
Columns and labels:
[1] = target: T1, Corticotropin-releasing factor receptor 2/Corticotropin-releasing factor-binding protein (Homo sapiens, UniProt P24387+Q13324); assay: activators of CRF receptor 2 with binding protein – uHTS hits, confirmation (AID 602473); type: functional; conditions: read-out: EC50_Mean
T1 sequence (Q13324 whole entry): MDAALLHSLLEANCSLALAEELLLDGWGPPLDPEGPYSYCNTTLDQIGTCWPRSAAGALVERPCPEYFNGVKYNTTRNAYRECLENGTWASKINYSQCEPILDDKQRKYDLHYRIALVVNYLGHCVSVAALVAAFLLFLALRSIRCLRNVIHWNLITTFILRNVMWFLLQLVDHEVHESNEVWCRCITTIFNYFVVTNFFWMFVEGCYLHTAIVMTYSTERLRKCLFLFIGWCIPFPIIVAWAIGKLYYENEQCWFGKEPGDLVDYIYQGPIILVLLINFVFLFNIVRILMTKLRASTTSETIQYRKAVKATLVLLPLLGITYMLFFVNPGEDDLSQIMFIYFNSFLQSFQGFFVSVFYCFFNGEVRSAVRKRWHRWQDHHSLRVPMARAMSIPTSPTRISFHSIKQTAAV
T1 sequence (P24387 whole entry): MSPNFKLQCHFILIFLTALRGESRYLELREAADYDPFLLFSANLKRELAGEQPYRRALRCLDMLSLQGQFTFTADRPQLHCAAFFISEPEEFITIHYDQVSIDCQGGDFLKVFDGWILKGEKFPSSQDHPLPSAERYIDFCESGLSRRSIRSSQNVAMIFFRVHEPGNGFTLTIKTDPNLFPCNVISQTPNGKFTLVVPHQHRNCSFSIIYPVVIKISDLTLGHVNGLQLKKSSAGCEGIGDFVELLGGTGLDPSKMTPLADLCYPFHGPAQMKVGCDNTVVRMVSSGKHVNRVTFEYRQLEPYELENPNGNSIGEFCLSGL

[2] = target: T1, Corticotropin-releasing factor receptor 2/Corticotropin-releasing factor-binding protein; assay: Dose Response confirmation of uHTS hits for small molecule antagonists of the CRF-binding protein and CRF-R2 receptor complex.; type: functional; conditions: read-out: IC50_Mean
[3] = CRF-BP/CRF-R2 complex antagonists, dose response, cell-based, uHTS hits, 384-well (AID 651639); type: functional, Homo sapiens; conditions: read-out: IC50_Mean
H4 = assay: Luminescence Cell-Based Dose Response HTS to Identify Activators of 5'UTR Stem-Loop Driven Prion Protein mRNA Translation in H4 Neuroglioblastoma Cells. [Related pubchem assays: 1829 (Project Summary), 1814 (Primary HTS)]; type: functional; conditions: Homo sapiens
[4] = Luminescence Cell-Based Dose Response HTS to Identify Activators of Luciferase Translation or Activity in H4 […] Cells. [Related pubchem assays: 1829 (Project Summary), 1814 (Primary HTS)]; type: functional
[5] = target: T2, Oxysterols receptor LXR-beta (Homo sapiens, UniProt P55055); type: functional, cell-based;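 further: agonist activity at LXR measured by a cell-based luminescence readout across a dose range, run as a counterscreen for daf-12 agonists; HEK293 cells with Gal4-LXR fusion and GAL4-driven luciferase reporter; potency for activation of Gal4-LXR reporter so compounds are agonists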
T2 sequence (P55055 whole entry): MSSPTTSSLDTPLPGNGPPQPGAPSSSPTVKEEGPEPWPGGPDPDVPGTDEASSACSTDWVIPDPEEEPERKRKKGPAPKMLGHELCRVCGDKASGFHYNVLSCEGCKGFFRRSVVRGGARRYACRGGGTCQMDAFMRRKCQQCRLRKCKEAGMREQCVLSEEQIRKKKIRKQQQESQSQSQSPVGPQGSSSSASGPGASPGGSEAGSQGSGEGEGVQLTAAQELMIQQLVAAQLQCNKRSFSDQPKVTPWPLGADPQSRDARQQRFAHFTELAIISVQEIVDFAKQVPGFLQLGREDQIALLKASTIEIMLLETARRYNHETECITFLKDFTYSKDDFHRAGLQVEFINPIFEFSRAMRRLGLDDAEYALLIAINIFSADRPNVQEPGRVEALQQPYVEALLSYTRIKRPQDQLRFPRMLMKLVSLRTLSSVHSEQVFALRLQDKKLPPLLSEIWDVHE

Paired box protein Pax-8 = Paired box protein Pax-8 (Homo sapiens, UniProt Q06710); assay: inhibitors of PAX8-driven TPO luciferase reporter, dose response, RMG-I cells, cherry-pick (AID 687027); type: functional, cell-based;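 further: luciferase reporter driven by Pax8 target thyroperoxidase promoter measured by SteadyGlo luminescence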
[6] = NIH:OVCAR-3 ovarian cancer cell cytotoxicity, dose response, PAX8 inhibitor project, plate reader, dry powder samples (AID 743044); type: functional, cell-based
[7] = cytotoxicity in OVCAR8 ovarian cancer cells, dose response, PAX8 project, cell-based, plate reader, dry powder samples (AID 743197); type: functional; conditions: OVCAR-8
[8] = Counterscreen for inhibitors of Trypanosoma brucei methionyl tRNA synthetase (MetRS): Luminescence-based cell-based high throughput dose response assay to identify compounds that are cytotoxic to Jurkat human T lymphocyte cells.; type: functional
[9] = target: T3, Methionyl-tRNA synthetase, putative (Trypanosoma brucei brucei, UniProt Q38C91); type: functional, Trypanosoma brucei brucei strain 927/4 GUTat10.1
T3 sequence (Q38C91 whole entry): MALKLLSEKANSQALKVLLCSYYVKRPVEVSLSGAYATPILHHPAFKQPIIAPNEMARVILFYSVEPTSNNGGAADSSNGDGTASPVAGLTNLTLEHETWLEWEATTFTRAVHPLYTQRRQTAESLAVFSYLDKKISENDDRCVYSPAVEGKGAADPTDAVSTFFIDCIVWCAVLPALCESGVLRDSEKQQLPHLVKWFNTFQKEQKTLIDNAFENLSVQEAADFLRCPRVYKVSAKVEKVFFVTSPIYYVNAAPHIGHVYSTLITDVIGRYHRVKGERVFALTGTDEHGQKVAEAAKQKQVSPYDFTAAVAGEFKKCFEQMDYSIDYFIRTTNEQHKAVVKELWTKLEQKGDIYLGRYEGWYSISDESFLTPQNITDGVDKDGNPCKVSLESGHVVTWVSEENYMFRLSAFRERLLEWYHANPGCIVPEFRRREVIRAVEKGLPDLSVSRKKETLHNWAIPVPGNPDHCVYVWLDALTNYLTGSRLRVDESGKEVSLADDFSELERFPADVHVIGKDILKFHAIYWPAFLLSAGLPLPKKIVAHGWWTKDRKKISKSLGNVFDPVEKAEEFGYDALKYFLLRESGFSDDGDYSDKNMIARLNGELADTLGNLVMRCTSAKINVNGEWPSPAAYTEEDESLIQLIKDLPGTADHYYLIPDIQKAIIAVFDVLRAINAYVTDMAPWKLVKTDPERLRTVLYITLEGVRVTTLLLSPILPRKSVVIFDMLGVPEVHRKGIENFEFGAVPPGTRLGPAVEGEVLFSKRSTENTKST

[10] = target: T3, Methionyl-tRNA synthetase, putative; type: functional, Trypanosoma brucei brucei strain 927/4 GUTat10.1; remark: listed apart in the source
[11] = target: T4, COUP transcription factor 2 (Homo sapiens, UniProt P24468); assay: Luminescence-based cell-based high throughput dose response assay to identify inhibitors of COUP-TFII (NR2F2).; type: functional;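 further: HEK293 cells transiently cotransfected with COUP-TFII expression vector and reporter; luciferase reporter luminescence driven by COUP-TFII from the pX2-168 reporter plasmid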
T4 sequence (P24468 whole entry): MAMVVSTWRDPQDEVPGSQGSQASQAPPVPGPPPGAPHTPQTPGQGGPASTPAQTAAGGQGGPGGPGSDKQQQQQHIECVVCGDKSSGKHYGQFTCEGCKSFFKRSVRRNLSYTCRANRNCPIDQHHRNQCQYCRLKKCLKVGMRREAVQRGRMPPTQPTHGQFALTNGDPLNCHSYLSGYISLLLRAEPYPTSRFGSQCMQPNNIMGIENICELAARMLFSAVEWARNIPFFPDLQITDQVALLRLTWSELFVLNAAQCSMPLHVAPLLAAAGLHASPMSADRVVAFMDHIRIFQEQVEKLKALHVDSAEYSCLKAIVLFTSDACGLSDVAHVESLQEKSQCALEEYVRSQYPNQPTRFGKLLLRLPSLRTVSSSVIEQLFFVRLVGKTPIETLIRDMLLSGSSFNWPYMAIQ

[12] = inhibitors of SNCA 5'UTR-driven reporter translation, confirmation, H4 neuroglioma cells, luminescence (AID 1988); type: functional, cell-based
[13] = inhibitors of firefly luciferase expression or activity, dose response, H4 neuroglioma cells, luminescence (AID 1990); type: functional, cell-based
[14] = Luminescence Cell-Based Dose Response HTS to Identify Inhibitors of 5'UTR Stem-Loop Driven Prion Protein mRNA Translation in H4 Neuroglioblastoma Cells. [Related pubchem assays: 1827 (Project Summary), 1813 (Primary HTS)]; type: functional
[15] = cytotoxicity toward NIH3T3 fibroblasts, dose response, counter-screen, cell-based, ATP luminescence, mouse fibroblasts (AID 2010); type: functional;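 further: cells exposed to compound for about 90 hours before reading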
[16] = inhibitors of intracellular T. cruzi replication, confirmation, NIH3T3 host cells, beta-gal luminescence (AID 2044); type: functional, cell-based;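 further: intracellular parasites grown in NIH/3T3 mouse fibroblasts as host cells; luminescent beta-galactosidase reporter signal from transgenic T. cruzi replicating inside host cells; inhibitors lower the luminescence signal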
[17] = cytotoxicity in HEK-293T cells, dose response, cytotoxicity control for TCR NF-kB inhibitor project, luminescence, T-cell screen hits (AID 489026); type: functional, cell-based;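 further: cells exposed to compound about 14 hours before the viability readout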
INS1 = assay: beta cell apoptosis inhibitors, cytokine rescue, dose response, luminescence, retest (AID 449756); type: functional, cell-based; conditions: Rattus norvegicus;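 further: cell death triggered by IL-1 beta plus TNF-alpha plus IFN-gamma mixture; protective hits raise ATP signal compared with cytokine alone wells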
Caspase-6 = target: T5, Caspase-6 (Homo sapiens, UniProt P55212); assay: human caspase-6 inhibitors, dose response, biochemical, VEID-R110 fluorescence, cherry-pick (AID 720632)
T5 sequence (P55212 whole entry): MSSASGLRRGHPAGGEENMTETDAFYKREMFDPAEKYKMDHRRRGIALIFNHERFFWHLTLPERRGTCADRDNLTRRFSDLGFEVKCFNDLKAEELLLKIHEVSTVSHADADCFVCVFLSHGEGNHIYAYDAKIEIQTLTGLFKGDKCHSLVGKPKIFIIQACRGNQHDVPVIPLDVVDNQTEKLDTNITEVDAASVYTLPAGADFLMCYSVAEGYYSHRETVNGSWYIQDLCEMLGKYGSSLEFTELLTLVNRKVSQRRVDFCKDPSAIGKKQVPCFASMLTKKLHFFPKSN

Chain of Paired box protein Pax-8 (Q06710 whole entry): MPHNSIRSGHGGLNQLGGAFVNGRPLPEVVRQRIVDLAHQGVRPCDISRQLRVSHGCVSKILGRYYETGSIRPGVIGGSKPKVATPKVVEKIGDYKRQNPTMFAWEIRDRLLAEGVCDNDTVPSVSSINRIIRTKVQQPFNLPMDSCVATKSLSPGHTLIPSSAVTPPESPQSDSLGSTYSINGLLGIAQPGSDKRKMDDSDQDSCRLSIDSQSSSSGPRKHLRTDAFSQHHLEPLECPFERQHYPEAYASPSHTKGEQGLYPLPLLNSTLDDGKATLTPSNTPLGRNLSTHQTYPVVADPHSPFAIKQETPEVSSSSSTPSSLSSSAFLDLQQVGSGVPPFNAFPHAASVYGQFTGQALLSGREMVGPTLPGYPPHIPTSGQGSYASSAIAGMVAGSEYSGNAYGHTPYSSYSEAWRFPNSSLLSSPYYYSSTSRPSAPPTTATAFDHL

Compound: COc1ccccc1CN(C)C(=O)C(c1ccccc1)c1ccccc1
- EC50 [1]: > 53 µM (inactive)
- IC50 [2]: 8.1 µM (active)
- IC50 [3]: > 20 µM (inactive)

Compound: Cc1nc2ccccc2n1CCOc1ccc([N+](=O)[O-])cc1
- EC50 [1]: > 53 µM (inactive)
- IC50 [2]: < 0.368 µM (active)
- IC50 [3]: 0.972 µM (active)

Compound: C/C(=N\c1ccccc1)c1sc2ccccc2c1O
- EC50 (H4): 0.153 µM (active)
- EC50 [4]: 2.22 µM (active)
- EC50 [5]: > 67.6 µM (inactive)

Compound: N=C1c2ccccc2CN1CC(=O)c1ccccc1
- EC50 (H4): 8 µM (active)
- EC50 [4]: 10.6 µM (active)
- EC50 [5]: > 67.6 µM (inactive)

Compound: Cc1noc(C)c1S(=O)(=O)Nc1ccc2c(c1)C(=O)N([C@H](C)CO)C[C@H](C)[C@@H](CN(C)C(=O)Nc1ccc(C(F)(F)F)cc1)OCCCC[C@H](C)O2
- AC50 (Paired box protein Pax-8): 9.4 µM (active)
- AC50 [6]: < 260 nM (active)
- AC50 [7]: > 70 µM (inactive)

Compound: O=C(NCC(O)COc1ccc([N+](=O)[O-])cc1)Nc1ccccc1 (stereo not given)
- IC50 [8]: 83.4 µM (inactive)
- IC50 [9]: 15.6 µM (inactive)
- IC50 [10]: 9.32 µM (active)

Compound: N=c1ccn(CC(=O)c2ccc(-c3ccccc3)cc2)cc1
- IC50 [11]: 9.15 µM (active)
- EC50 [12]: 7.33 µM (active)
- EC50 [13]: 9.17 µM (active)
- EC50 [14]: 12.3 µM (active)
- EC50 [15]: > 60 µM (not active)
- EC50 [16]: 2.01 µM (active)
- IC50 [17]: > 80 µM (inactive)
- AC50 (INS1): 1.46 µM (active)

Compound: O=C(O)c1cc([N+](=O)[O-])cc2c1C=Cc1ccccc1O2
- AC50 (Caspase-6): 37.5 µM (active)

Compound: Cc1ccc(C)c(S(=O)(=O)C(C#N)c2nc3ccccc3nc2N2CCOCC2)c1 (stereo not given)
- EC50 [1]: 35.8 µM (active)
- IC50 [2]: 39.8 µM (active)
- IC50 [3]: > 20 µM (inactive)

Source: ChEMBL document CHEMBL1201862, “PubChem BioAssay data set” (2004)
